Experimental data reported in ChEMBL document CHEMBL3351675, “Novel benzenesulfonylureas containing thiophenylpyrazoline moiety as potential antidiabetic and anticancer agents” (Bioorg Med Chem Lett, 2014).
Calls of active or inactive are those of the source. No cut-off for these calls is given here.

How the values were obtained:
[1] = Anticancer activity against human OVCAR4 cells assessed as cell growth level at 10 uM after 48 hrs by sulforhodamine B assay; assay type: functional, OVCAR-4
DU-145 = experiment: Anticancer activity against human DU145 cells assessed as cell growth level at 10 uM after 48 hrs by sulforhodamine B assay; assay type: functional
[2] = Anticancer activity against human Hs 578T cells assessed as cell growth level at 10 uM after 48 hrs by sulforhodamine B assay; assay type: functional
Malme-3M = experiment: Anticancer activity against human MALME-3M cells assessed as cell growth level at 10 uM after 48 hrs by sulforhodamine B assay; assay type: functional
[3] = Anticancer activity against human SKOV3 cells assessed as cell growth level at 10 uM after 48 hrs by sulforhodamine B assay; assay type: functional, SK-OV-3
Rattus norvegicus [4] = experiment: Antidiabetic activity in Wistar rat model of streptozotocin-induced diabetes assessed as reduction in plasma glucose level at 30 mg/kg, po and dosage repeated for 15 days by GOD-POD method; assay type: functional, organism-based; parameters: dose 30 mg/kg
[5] = Anticancer activity against human NCI60 cells assessed as cell growth level at 10 uM after 48 hrs by sulforhodamine B assay; assay type: functional
[6] = Anticancer activity against human UACC62 cells assessed as cell growth level at 10 uM after 48 hrs by sulforhodamine B assay; assay type: functional, UACC-62
[7] = Anticancer activity against human UACC257 cells assessed as cell growth level at 10 uM after 48 hrs by sulforhodamine B assay; assay type: functional, UACC-257
ACHN = experiment: Anticancer activity against human ACHN cells assessed as cell growth level at 10 uM after 48 hrs by sulforhodamine B assay; assay type: functional
CAKI-1 = experiment: Anticancer activity against human CAKI-1 cells assessed as cell growth level at 10 uM after 48 hrs by sulforhodamine B assay; assay type: functional
Rattus norvegicus [8] = experiment: Effect on body weight in Wistar rat model of streptozotocin-induced diabetes at 30 mg/kg, po measured over 15 days; assay type: ADME, organism-based; parameters: dose 30 mg/kg, route oral; conditions: in vivo, 360 h
HOP-62 = experiment: Anticancer activity against human HOP62 cells assessed as cell growth level at 10 uM after 48 hrs by sulforhodamine B assay; assay type: functional
[9] = Anticancer activity against human HOP92 cells assessed as cell growth level at 10 uM after 48 hrs by sulforhodamine B assay; assay type: functional, HOP-92
CCRF-CEM = experiment: Anticancer activity against human CCRF-CEM cells assessed as cell growth level at 10 uM after 48 hrs by sulforhodamine B assay; assay type: functional
[10] = Anticancer activity against human OVCAR8 cells assessed as cell growth level at 10 uM after 48 hrs by sulforhodamine B assay; assay type: functional, OVCAR-8
MDA-MB-435 = experiment: Anticancer activity against human MDA-MB-435 cells assessed as cell growth level at 10 uM after 48 hrs by sulforhodamine B assay; assay type: functional
Rattus norvegicus [11] = experiment: Increase in body weight in Wistar rat model of streptozotocin-induced diabetes at 30 mg/kg, po measured over 15 days; assay type: ADME, organism-based; parameters: dose 30 mg/kg, route oral; conditions: in vivo, 360 h

## COc1ccc(NC(=O)NS(=O)(=O)c2ccc(N3N=C(c4cccs4)CC3c3ccc(C)s3)cc2)cc1 (centres undefined)
[1]
  Activity: 102.84%
DU-145
  Activity: 105.62%
[2]
  Activity: 97.52%
Malme-3M
  Activity: 31.15%
[3]
  Activity: 82.55%
Rattus norvegicus [4]
  inhibition: Active
[5]
  Activity: 87.76%
[6]
  Activity: 31%
[7]
  Activity: 49.98%
ACHN
  Activity: 93.16%
CAKI-1
  Activity: 94.74%
Rattus norvegicus [8]
  Activity: Non-toxic
HOP-62
  Activity: 81.02%
[9]
  Activity: 87.06%
CCRF-CEM
  Activity: 88.12%
[10]
  Activity: 106.9%
MDA-MB-435
  Activity: 52.3%

## Cc1ccc(NC(=O)NS(=O)(=O)c2ccc(N3N=C(c4cccs4)CC3c3ccc(C)s3)cc2)cc1 (centres undefined)
[1]
  Activity: 106.4%
DU-145
  Activity: 102.33%
[2]
  Activity: 96.05%
Malme-3M
  Activity: 40.64%
[3]
  Activity: 78.27%
Rattus norvegicus [11]
  Activity: Toxic
[5]
  Activity: 89.29%
[6]
  Activity: 40.91%
[7]
  Activity: 61.42%
ACHN
  Activity: 96.6%
CAKI-1
  Activity: 95.78%
Rattus norvegicus [8]
  Activity: Non-toxic
HOP-62
  Activity: 76.92%
[9]
  Activity: 84.91%
CCRF-CEM
  Activity: 87.89%
[10]
  Activity: 99.82%
MDA-MB-435
  Activity: 61.95%
